Data reported in ChEMBL document CHEMBL1152883, “1-Amido-1-phenyl-3-piperidinylbutanes--CCR5 antagonists for the treatment of HIV: part 2” (Bioorg Med Chem Lett, 2009).
Values belong to the compound of their own block, whether it stands above or below them.

Assays:
[1] = Lipophilicity, log D at pH 7.4; format: physicochemical; details: buffer
[2] = Apparent permeability from apical to basolateral side of human Caco-2 cells; format: ADME, cell-based; details: read-out: permeability
[3] = (§1) Metabolic stability in human liver microsomes assessed as clearance measured per mg of protein; format: ADME, Microsome; details: liver microsomes
[4] = Apparent permeability from basolateral to apical side of human Caco-2 cells; format: ADME, cell-based; details: read-out: permeability
[5] = test system: Human immunodeficiency virus 1; assay: Antiviral activity against HIV1 BAL assessed as inhibition of viral replication; format: functional; details: Human immunodeficiency virus 1, BAL
[6] = Volume of distribution in iv dosed Sprague-Dawley rat; format: ADME, organism-based; details: in vivo
[7] = Oral bioavailability in Sprague-Dawley rat; format: ADME, organism-based; details: in vivo
[8] = Clearance in iv dosed Sprague-Dawley rat; format: ADME, organism-based; details: in vivo
[9] = Half life in iv dosed Sprague-Dawley rat; format: ADME, organism-based; details: in vivo
[10] = test system: Liver microsomes; assay: as §1; format: ADME, Microsome; details: microsomes

SMILES: Cc1nc(C(C)C)n([C@@H]2C[C@H]3CC[C@@H](C2)N3CC[C@H](NC(=O)C2CCC(F)(F)CC2)c2ccccc2)n1
logD ([1]; read-out: logD): 2.7
Papp A→B [2]: 11 ×10⁻⁶ cm/s
microsomal CLint [3]: 6 µL/min/mg
Papp B→A [4]: 26 ×10⁻⁶ cm/s

SMILES: CC(=O)N[C@@H](CC(C)N1CCC(n2c(C)nnc2C(C)C)CC1)c1ccccc1 (mixture of isomers)
microsomal CLint [3]: < 8 µL/min/mg

SMILES: Cc1nnc(C(C)C)n1C1CCN(C(C)C[C@H](NC(=O)CC(F)(F)F)c2ccccc2)CC1 (mixture of isomers)
microsomal CLint [3]: 11.4 µL/min/mg

SMILES: Cc1nnc(C(C)C)n1C1CCN(C(C)C[C@H](NC(=O)COCC(F)(F)F)c2ccccc2)CC1 (mixture of isomers)
microsomal CLint [3]: 61.6 µL/min/mg

SMILES: Cc1nnc(C(C)C)n1C1CCN(C(C)C[C@H](NC(=O)C2CCCCC2)c2ccccc2)CC1 (mixture of isomers)
logD ([1]; read-out: logD): 2.5
microsomal CLint [3]: 139 µL/min/mg

SMILES: Cc1nnc(C(C)C)n1C1CCN(C(C)C[C@H](NC(=O)C(C)C)c2ccccc2)CC1 (mixture of isomers)
microsomal CLint [3]: < 8 µL/min/mg

SMILES: Cc1nnc(C(C)C)n1C1CCN(C(C)C[C@H](NC(=O)N2CCOCC2)c2ccccc2)CC1 (mixture of isomers)
microsomal CLint [3]: < 8 µL/min/mg

SMILES: Cc1nnc(C(C)C)n1C1CCN(C(C)C[C@H](NC(=O)C2CCS(=O)(=O)CC2)c2ccccc2)CC1 (mixture of isomers)
logD ([1]; read-out: logD): 0.5

SMILES: CC(=O)N1CCC(C(=O)N[C@@H](CC(C)N2CCC(n3c(C)nnc3C(C)C)CC2)c2ccccc2)CC1 (mixture of isomers)
microsomal CLint [3]: < 8 µL/min/mg

SMILES: COC(=O)N[C@@H](CC(C)N1CCC(n2c(C)nnc2C(C)C)CC1)c1ccccc1 (mixture of isomers)
logD ([1]; read-out: logD): 1.5
microsomal CLint [3]: < 7 µL/min/mg

SMILES: Cc1nnc(C(C)C)n1C1CCN(C(C)C[C@H](NC(=O)C2CCOCC2)c2ccccc2)CC1 (mixture of isomers)
microsomal CLint [3]: 10.8 µL/min/mg

SMILES: Cc1nnc(C(C)C)n1C1CCN(C(C)C[C@H](NC(=O)CC2CC2)c2ccccc2)CC1 (mixture of isomers)
logD ([1]; read-out: logD): 1.9

SMILES: Cc1nnc(C(C)C)n1[C@@H]1C[C@H]2CC[C@@H](C1)N2CC[C@H](NC(=O)C1CCC(F)(F)CC1)c1ccccc1 [MARAVIROC]
Vd [6]: 6.5 L/kg
logD ([1]; read-out: logD): 1.9
Papp A→B [2]: 1 ×10⁻⁶ cm/s
clearance [8]: 74 mL/min/kg
microsomal CLint [3]: 20 µL/min/mg
Papp B→A [4]: 10 ×10⁻⁶ cm/s
half-life [9]: 0.9 h

SMILES: Cc1nnc(C(C)C)n1[C@H]1C[C@H]2CC[C@@H](C1)N2CC[C@H](NC(=O)C1CCC(F)(F)CC1)c1ccccc1 [MARAVIROC]
IC90 [5]: 2.8 nM

Next, values leading:

IC90 [5]: 1.8 nM
Vd [6]: 10 L/kg
logD ([1]; read-out: logD): 2.2
bioavailability [7]: 6%
clearance [8]: 92 mL/min/kg
microsomal CLint [3]: 12 µL/min/mg
half-life [9]: 1.3 h
SMILES: Cc1nnc(C(C)C)n1C1CCN([C@H](C)C[C@H](NC(=O)C2CC(F)(F)C2)c2ccccc2)CC1

logD ([1]; read-out: logD): 2.2
microsomal CLint [3]: < 7 µL/min/mg
SMILES: Cc1nnc(C(C)C)n1C1CCN([C@@H](C)C[C@H](NC(=O)C2CCC(F)(F)CC2)c2ccccc2)CC1

microsomal CLint [3]: < 8 µL/min/mg
SMILES: Cc1nnc(C(C)C)n1C1CCN(C(C)C[C@H](NC(=O)C2CC2)c2ccccc2)CC1 (mixture of isomers)

logD [1]: 2
CL [10]: < 7 µL/min/mg
SMILES: Cc1nnc(C(C)C)n1C1CCN(C(C)C[C@H](NC(=O)C2CC(F)(F)C2)c2ccccc2)CC1 (mixture of isomers; form 1)

logD ([1]; read-out: logD): 2
CL [10]: 19 µL/min/mg
SMILES: Cc1nnc(C(C)C)n1C1CCN(C(C)C[C@H](NC(=O)C2CCC(F)(F)CC2)c2ccccc2)CC1 (mixture of isomers; form 1)

logD [1]: 2
microsomal CLint [3]: 16 µL/min/mg
SMILES: Cc1nnc(C(C)C)n1C1CCN(C(C)C[C@H](NC(=O)C2CCC(F)(F)CC2)c2ccccc2)CC1.Cl (mixture of isomers; form 2)

logD ([1]; read-out: logD): 1.9
microsomal CLint [3]: < 7 µL/min/mg
SMILES: Cc1nnc(C(C)C)n1C1CCN(C(C)C[C@H](NC(=O)C2CC(F)(F)C2)c2ccccc2)CC1 (mixture of isomers; form 2)
